Patent US11369605B2, “Optically active azabicyclo ring derivative” (priority 2018, dated 2022)
“Also recorded” adds a separate entry of the source.

What was measured:
[1] = biological target: Menin-MLL binding (His-Menin1-615, MLL1-172-FLAG) (Homo sapiens (Human), UniProt O00255); assay: Test 1: inhibition of the Menin-MLL binding (HTRF); conditions: summary of Test 1 table
Method: Test 1: Test for Evaluating the Inbinition of the Menin-MLL Binding
After the incubation, the signal was detected with RUBYstar (BMG LABTECH).

RS4; 11 cells = assay: Test 2: inhibition of cell proliferation, RS4; 11; format: cell-based; conditions: for cell proliferation inhibition activity (in words): summary of Test 2 (RS4; 11 and MOLM-13)
Method: (§1) Test for Evaluating the Inhibition of Cell Proliferation RS4; 11 cells were obtained from American Type Culture Collection (ATCC). […] MOLM-13 cells were separately obtained from DSMZ (Deutsche Sammlung von Mikroorganismen und Zeilkulturen GmbH). […] The cells were plated to a 96-well plate in 2000 cells/well, each test compound was added thereto to adjust the final concentration of DMSO to 0.1% of DMSO, and the cells were cultured for 7 days. After the cultivation, the cell viability was calculated with PrestoBlue™ Cell Viability Reagent (Invitrogen, A13261).

[2] = tested on: MEIS1 mRNA in MV4; 11 cells; assay: Test 3: inhibition of mRNA transcription, MEIS1; format: cell-based; conditions: for mRNA transcription inhibition activity (in words): MEIS1 and HOXA9, MV4, summary of Test 3
Method: (§2) Test 3: Test for the Inhibition of mRNA Transcription with Test Compounds
(§3) MV4; 11 cells were obtained from American Type Culture Collection (ATCC). […] After the incubation, the total RNA was extracted from the cells with RNeasy™ Mini Kit (QIAGEN, 74106), and cDNA was synthesized with Superscript™ VILO™ cDNA Synthesis Kit (Invitrogen, #11754250). By using TaqMan™ Gene Expression Master Mix (Applied Biosystems, 4369016) and TaqMan™ probe (Applied Biosystems), the expression level of mRNA was quantified from the obtained cDNA with 7900HT (Applied Biosystems). The expression level of each obtained gene (MEIS1 and HOXA9) was fitted with the expression level of mRNA of GAPDH.

[3] = tested on: HOXA9 mRNA in MV4; 11 cells; assay: Test 3: inhibition of mRNA transcription, HOXA9; format: cell-based; conditions: 20 to 24 hours, fitted with GAPDH
Method: as §2, §3

[4] = biological target: hERG (human Ether-a-go-go Related Gene) (Homo sapiens (Human), UniProt Q12809); assay: Test 4: hERG inhibition (QPatch HT); conditions: for IC50: read-out: hERG inhibition IC50, CHO cell strain stably expressing hERG; for gap between RS4; 11 proliferation IC50 and hERG current IC50: summary of Test 4 table; for hERG/RS4; 11: hERG IC50 divided by RS4, 11 proliferation IC50
MOLM-13 cells = assay: Test 2: inhibition of cell proliferation, MOLM-13; format: cell-based; conditions: cultured 7 days, PrestoBlue
Method: as §1

Chain of hERG (human Ether-a-go-go Related Gene) (Q12809 whole entry): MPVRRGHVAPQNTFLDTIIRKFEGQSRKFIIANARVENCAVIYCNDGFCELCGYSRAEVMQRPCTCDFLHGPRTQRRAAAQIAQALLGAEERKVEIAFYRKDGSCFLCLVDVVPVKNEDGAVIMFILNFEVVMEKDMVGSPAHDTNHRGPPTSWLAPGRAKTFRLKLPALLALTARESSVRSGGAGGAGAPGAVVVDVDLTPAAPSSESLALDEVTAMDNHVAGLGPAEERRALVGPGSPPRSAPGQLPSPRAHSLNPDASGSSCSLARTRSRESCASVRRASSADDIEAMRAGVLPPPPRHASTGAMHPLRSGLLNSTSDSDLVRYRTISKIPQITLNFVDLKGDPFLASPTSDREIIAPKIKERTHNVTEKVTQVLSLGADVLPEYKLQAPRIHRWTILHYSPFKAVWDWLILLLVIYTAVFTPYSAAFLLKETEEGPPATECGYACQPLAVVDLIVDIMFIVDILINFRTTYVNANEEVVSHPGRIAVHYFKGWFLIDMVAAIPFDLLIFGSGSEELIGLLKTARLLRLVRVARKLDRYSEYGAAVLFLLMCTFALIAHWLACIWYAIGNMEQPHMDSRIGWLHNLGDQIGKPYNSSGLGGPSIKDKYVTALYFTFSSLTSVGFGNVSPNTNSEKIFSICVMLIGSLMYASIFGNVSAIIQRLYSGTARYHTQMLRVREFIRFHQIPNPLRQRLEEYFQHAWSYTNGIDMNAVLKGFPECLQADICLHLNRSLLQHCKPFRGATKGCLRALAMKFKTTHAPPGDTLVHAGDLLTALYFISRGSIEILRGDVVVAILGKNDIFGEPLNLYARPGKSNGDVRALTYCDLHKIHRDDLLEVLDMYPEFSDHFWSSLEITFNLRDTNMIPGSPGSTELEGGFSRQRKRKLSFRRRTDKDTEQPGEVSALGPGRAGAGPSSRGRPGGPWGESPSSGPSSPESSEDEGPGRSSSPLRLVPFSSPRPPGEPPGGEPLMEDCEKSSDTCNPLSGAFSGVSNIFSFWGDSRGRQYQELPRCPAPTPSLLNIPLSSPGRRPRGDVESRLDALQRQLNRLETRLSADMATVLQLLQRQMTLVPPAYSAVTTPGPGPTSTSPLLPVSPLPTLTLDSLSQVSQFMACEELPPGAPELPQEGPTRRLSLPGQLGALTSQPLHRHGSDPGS
Chain of Menin-MLL binding (His-Menin1-615, MLL1-172-FLAG) (O00255 other isoform, or with tags, fused parts or gaps): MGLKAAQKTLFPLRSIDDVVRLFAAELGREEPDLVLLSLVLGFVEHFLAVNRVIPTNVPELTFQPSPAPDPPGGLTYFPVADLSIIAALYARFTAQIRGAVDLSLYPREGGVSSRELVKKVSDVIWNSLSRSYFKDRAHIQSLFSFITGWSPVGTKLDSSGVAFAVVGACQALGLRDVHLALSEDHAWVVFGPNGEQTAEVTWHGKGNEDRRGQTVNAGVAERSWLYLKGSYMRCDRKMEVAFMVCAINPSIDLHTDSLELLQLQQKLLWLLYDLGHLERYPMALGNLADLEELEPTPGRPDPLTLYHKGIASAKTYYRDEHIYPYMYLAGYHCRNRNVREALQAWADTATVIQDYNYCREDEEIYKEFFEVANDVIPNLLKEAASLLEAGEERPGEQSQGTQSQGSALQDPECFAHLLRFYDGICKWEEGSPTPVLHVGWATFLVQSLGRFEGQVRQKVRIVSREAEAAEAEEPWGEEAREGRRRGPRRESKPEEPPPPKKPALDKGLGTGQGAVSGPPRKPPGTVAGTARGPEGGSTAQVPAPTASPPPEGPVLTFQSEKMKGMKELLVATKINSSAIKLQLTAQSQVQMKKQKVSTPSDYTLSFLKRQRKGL

Compound: 2-[(4-{6-[(1R,3S,4R)-2-azabicyclo[2.2.2]octane-3-carbonyl]-2,6-diazaspiro[3.3]heptan-2-yl}pyrimidin-5-yl)oxy]-5-fluoro-N,N-di(propan-2-yl)benzamide [Example 11]
- Menin-MLL binding inhibition activity (in words) [1]: potent
- cell proliferation inhibition activity (in words) (RS4; 11 cells): potent
- mRNA transcription inhibition activity (in words) [2]: showed the mRNA transcription inhibition activity
- mRNA at 1 μM (% control) MEIS1 ([2]; MV4, 1 μM, 20 to 24 hours, fitted with GAPDH): 13.1 % control
- mRNA at 1 μM (% control) HOXA9 [3]: 36.5 % control
- IC50 [4]: > 10000 nM
- gap between RS4; 11 proliferation IC50 and hERG current IC50 [4]: more than 100 fold

Compound: 2-[(4-{6-[(1R,3S,4S)-2-azabicyclo[2.2.1]heptane-3-carbonyl]-2,6-diazaspiro[3.3]heptan-2-yl}pyrimidin-5-yl)oxy]-5-fluoro-N,N-di(propan-2-yl)benzamide [Example 15]
- cell proliferation inhibition activity (in words) (RS4; 11 cells): potent
- IC50 [4]: > 100000 nM

Compound: 2-[(4-{7-[(1R,3S,4S)-2-azabicyclo[2.2.1]heptane-3-carbonyl]-2,7-diazaspiro[3.5]nonan-2-yl}pyrimidin-5-yl)oxy]-5-fluoro-N,N-di(propan-2-yl)benzamide [Example 16]
- cell proliferation inhibition activity (in words) (RS4; 11 cells): potent
- IC50 (MOLM-13 cells): 40 nM
- IC50 [4]: > 100000 nM

Compound: 5-fluoro-2-[(4-{7-[(1S,3S,4R)-5-methylidene-2-azabicyclo[2.2.1]heptane-3-carbonyl]-2,7-diazaspiro[3.5]nonan-2-yl}pyrimidin-5-yl)oxy]-N,N-di(propan-2-yl)benzamide [Example 18]
- cell proliferation inhibition activity (in words) (RS4; 11 cells): potent
- IC50 (MOLM-13 cells): 40 nM
- IC50 [4]: 46100 nM

Compound: CC(C)N(C(=O)c1cc(F)ccc1Oc1cncnc1N1CC2(CCN(C(=O)[C@H]3N[C@H]4CC[C@@H]3C[C@@H]4CC3CC3)CC2)C1)C(C)C [Example 1, 2-[(4-{7-[(1S,3S,4R,6S)-6-(Cyclopropylmethyl)-2-azabicyclo[2.2.2]octane-3-carbonyl]-2,7-diazaspiro[3.5]nonan-2-yl}pyrimidin-5-yl)oxy]-5-fluoro-N,N-di(propan-2-yl)benzamide]
- Menin-MLL binding inhibition activity (in words) [1]: potent
- cell proliferation inhibition activity (in words) (RS4; 11 cells): potent
- mRNA transcription inhibition activity (in words) [2]: showed the mRNA transcription inhibition activity
- gap between RS4; 11 proliferation IC50 and hERG current IC50 [4]: more than 100 fold

Compound: CC(C)N(C(=O)c1cc(F)ccc1Oc1cncnc1N1CC2(CN(C(=O)[C@H]3N[C@H]4CC[C@@H]3C[C@@H]4CC3CC3)C2)C1)C(C)C [Example 3, 2-[(4-{6-[(1S,3S,4R,6S)-6-(cyclopropylmethyl)-2-azabicyclo[2.2.2]octane-3-carbonyl]-2,6-diazaspiro[3.3]heptan-2-yl}pyrimidin-5-yl)oxy]-5-fluoro-N,N-di(propan-2-yl)benzamide]
- Menin-MLL binding inhibition activity (in words) [1]: particularly potent
- cell proliferation inhibition activity (in words) (RS4; 11 cells): potent
- mRNA transcription inhibition activity (in words) [2]: showed the mRNA transcription inhibition activity
- gap between RS4; 11 proliferation IC50 and hERG current IC50 [4]: more than 100 fold

Compound: CC(C)N(C(=O)c1cc(F)ccc1Oc1cncnc1N1CC2(CCN(C(=O)[C@H]3N[C@H]4CC[C@@H]3C[C@H]4CC3CC3)CC2)C1)C(C)C [Example 4, 2-[(4-{7-[(1S,3S,4R,6R)-6-(cyclopropylmethyl)-2-azabicyclo[2.2.2]octane-3-carbonyl]-2,7-diazaspiro[3.5]nonan-2-yl}pyrimidin-5-yl)oxy]-5-fluoro-N,N-di(propan-2-yl)benzamide]
- Menin-MLL binding inhibition activity (in words) [1]: potent
- cell proliferation inhibition activity (in words) (RS4; 11 cells): potent
- mRNA transcription inhibition activity (in words) [2]: showed the mRNA transcription inhibition activity
- gap between RS4; 11 proliferation IC50 and hERG current IC50 [4]: more than 100 fold

Compound: CC(C)N(C(=O)c1cc(F)ccc1Oc1cncnc1N1CC2(CN(C(=O)[C@H]3N[C@H]4CC[C@@H]3C[C@H]4CC3CC3)C2)C1)C(C)C [Example 5, 2-[(4-{6-[(1S,3S,4R,6R)-6-(cyclopropylmethyl)-2-azabicyclo[2.2.2]octane-3-carbonyl]-2,6-diazaspiro[3.3]heptan-2-yl}pyrimidin-5-yl)oxy]-5-fluoro-N,N-di(propan-2-yl)benzamide]
- Menin-MLL binding inhibition activity (in words) [1]: potent
- cell proliferation inhibition activity (in words) (RS4; 11 cells): potent; also recorded: excellent
- mRNA transcription inhibition activity (in words) [2]: showed the mRNA transcription inhibition activity
- gap between RS4; 11 proliferation IC50 and hERG current IC50 [4]: more than 100 fold

Compound: C=C1C[C@@H]2CC[C@H]1[C@@H](C(=O)N1CCC3(CC1)CN(c1ncncc1Oc1ccc(F)cc1C(=O)N(C(C)C)C(C)C)C3)N2 [Example 6, 5-Fluoro-2-[(4-{7-[(1S,3S,4R)-5-methylidene-2-azabicyclo[2.2.2]octane-3-carbonyl]-2,7-diazaspiro[3.5]nonan-2-yl}pyrimidin-5-yl)oxy]-N,N-di(propan-2-yl)benzamide]
- mRNA transcription inhibition activity (in words) [2]: showed the mRNA transcription inhibition activity

Compound: C=C1C[C@H]2CC[C@@H]1N[C@@H]2C(=O)N1CCC2(CC1)CN(c1ncncc1Oc1ccc(F)cc1C(=O)N(C(C)C)C(C)C)C2 [Example 8, 5-fluoro-2-[(4-{7-[(1S,3S,4R)-6-methylidene-2-azabicyclo[2.2.2]octane-3-carbonyl]-2,7-diazaspiro[3.5]nonan-2-yl}pyrimidin-5-yl)oxy]-N,N-di(propan-2-yl)benzamide]
- gap between RS4; 11 proliferation IC50 and hERG current IC50 [4]: more than 100 fold

Compound: C=C1C[C@H]2CC[C@@H]1N[C@@H]2C(=O)N1CC2(C1)CN(c1ncncc1Oc1ccc(F)cc1C(=O)N(C(C)C)C(C)C)C2 [Example 9, 5-fluoro-2-[(4-{6-[(1S,3S,4R)-6-methylidene-2-azabicyclo[2.2.2]octane-3-carbonyl]-2,6-diazaspiro[3.3]heptan-2-yl}pyrimidin-5-yl)oxy]-N,N-di(propan-2-yl)benzamide]
- gap between RS4; 11 proliferation IC50 and hERG current IC50 [4]: more than 100 fold

Compound: CC(C)N(C(=O)c1cc(F)ccc1Oc1cncnc1N1CC2(CN(C(=O)[C@H]3N[C@H]4CC[C@@H]3[C@@H](F)C4)C2)C1)C(C)C [Example 10, 5-fluoro-2-[(4-{6-[(1S,3S,4S,5S)-5-fluoro-2-azabicyclo[2.2.2]octane-3-carbonyl]-2,6-diazaspiro[3.3]heptan-2-yl}pyrimidin-5-yl)oxy]-N,N-di(propan-2-yl)benzamide]
- Menin-MLL binding inhibition activity (in words) [1]: particularly potent
- cell proliferation inhibition activity (in words) (RS4; 11 cells): potent
- mRNA transcription inhibition activity (in words) [2]: showed the mRNA transcription inhibition activity
- gap between RS4; 11 proliferation IC50 and hERG current IC50 [4]: more than 100 fold

Compound: CC(C)N(C(=O)c1cc(F)ccc1Oc1cncnc1N1CC2(CCN(C(=O)[C@H]3N[C@H]4CC[C@@H]3C(=O)C4)CC2)C1)C(C)C [Example 12, 5-fluoro-2-[(4-{7-[(1S,3S,4S)-5-oxo-2-azabicyclo[2.2.2]octane-3-carbonyl]-2,7-diazaspiro[3.5]nonan-2-yl}pyrimidin-5-yl)oxy]-N,N-di(propan-2-yl)benzamide]
- gap between RS4; 11 proliferation IC50 and hERG current IC50 [4]: more than 100 fold

Compound: CC(C)N(C(=O)c1cc(F)ccc1Oc1cncnc1N1CC2(CCN(C(=O)[C@H]3N[C@H]4CC[C@@H]3[C@@H](F)[C@H]4CC3CC3)CC2)C1)C(C)C [Example 14, 2-[(4-{7-[(1S,3S,4S,5S,6S)-6-(cyclopropylmethyl)-5-fluoro-2-azabicyclo[2.2.2]octane-3-carbonyl]-2,7-diazaspiro[3.5]nonan-2-yl}pyrimidin-5-yl)oxy]-5-fluoro-N,N-di(propan-2-yl)benzamide]
- IC50 (RS4; 11 cells; Homo sapiens, RS4, 11 cells, cultured 7 days, PrestoBlue): 20 nM
- cell proliferation inhibition activity (in words) (RS4; 11 cells): potent
- IC50 (MOLM-13 cells; Homo sapiens): 40 nM
- hERG/RS4; 11 [4]: 557
- gap between RS4; 11 proliferation IC50 and hERG current IC50 [4]: more than 100 fold

Compound: CC(C)N(C(=O)c1cc(F)ccc1Oc1cncnc1N1CC2(CCN(C(=O)[C@H]3N[C@H]4CC[C@@H]3[C@H](F)[C@@H]4CC3CC3)CC2)C1)C(C)C [Example 19, 2-[(4-{7-[(1S,3S,4S,5R,6R)-6-(cyclopropylmethyl)-5-fluoro-2-azabicyclo[2.2.2]octane-3-carbonyl]-2,7-diazaspiro[3.5]nonan-2-yl}pyrimidin-5-yl)oxy]-5-fluoro-N,N-di(propan-2-yl)benzamide]
- cell proliferation inhibition activity (in words) (RS4; 11 cells): potent
- hERG/RS4; 11 [4]: >690
- gap between RS4; 11 proliferation IC50 and hERG current IC50 [4]: more than 100 fold
